The text below walks through data of paper PMC8657792, “Interaction Profiles of Central Nervous System Active Drugs at Human Organic Cation Transporters 1–3 and Human Plasma Membrane Monoamine Transporter” (International Journal of Molecular Sciences, 2021).

Like-named read-outs stand apart in the source and are kept apart here.

Experiment [1] deals with T1, hOCT3 (Homo sapiens, UniProt O75751).
T1 construct: expressed in transfected cells
T1 sequence (O75751 1-556): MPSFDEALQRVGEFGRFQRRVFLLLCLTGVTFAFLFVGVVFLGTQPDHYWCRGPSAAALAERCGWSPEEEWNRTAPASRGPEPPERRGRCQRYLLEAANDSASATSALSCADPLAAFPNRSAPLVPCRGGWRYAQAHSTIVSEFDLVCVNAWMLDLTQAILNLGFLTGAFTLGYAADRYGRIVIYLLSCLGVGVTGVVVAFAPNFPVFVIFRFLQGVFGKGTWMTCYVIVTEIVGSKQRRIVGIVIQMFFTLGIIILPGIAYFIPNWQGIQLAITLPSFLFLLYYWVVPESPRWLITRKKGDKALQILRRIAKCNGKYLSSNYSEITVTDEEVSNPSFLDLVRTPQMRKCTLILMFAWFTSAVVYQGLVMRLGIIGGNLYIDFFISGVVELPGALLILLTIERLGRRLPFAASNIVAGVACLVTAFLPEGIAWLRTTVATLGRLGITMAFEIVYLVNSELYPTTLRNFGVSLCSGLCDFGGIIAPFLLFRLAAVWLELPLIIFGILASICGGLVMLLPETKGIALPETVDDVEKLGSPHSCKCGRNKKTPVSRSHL
The following applies: Table S1, supplementary reference list, cited from earlier work; for Ki: read-out: IC50 literature hOCT3 (Ki), Ki values.

Experiment [2] concerns the target T2, hOCT2 (Homo sapiens, UniProt O15244).
T2 construct: expressed in transfected cells
T2 sequence (O15244 1-555): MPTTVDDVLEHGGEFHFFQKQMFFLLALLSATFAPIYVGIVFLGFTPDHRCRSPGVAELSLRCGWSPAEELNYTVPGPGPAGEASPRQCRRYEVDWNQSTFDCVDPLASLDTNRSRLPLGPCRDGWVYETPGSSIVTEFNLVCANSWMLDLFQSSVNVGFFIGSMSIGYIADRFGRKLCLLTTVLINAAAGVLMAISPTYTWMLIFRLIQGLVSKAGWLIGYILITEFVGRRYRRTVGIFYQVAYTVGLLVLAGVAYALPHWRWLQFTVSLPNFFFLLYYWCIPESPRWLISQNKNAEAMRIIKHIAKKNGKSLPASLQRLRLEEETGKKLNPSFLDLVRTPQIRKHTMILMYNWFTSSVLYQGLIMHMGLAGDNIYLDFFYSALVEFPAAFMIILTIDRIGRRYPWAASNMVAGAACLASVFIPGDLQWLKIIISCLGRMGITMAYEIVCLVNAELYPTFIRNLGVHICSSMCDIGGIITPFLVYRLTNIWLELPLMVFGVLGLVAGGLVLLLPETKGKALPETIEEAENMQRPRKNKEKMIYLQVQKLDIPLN
The following applies: Table S1, supplementary reference list, cited from earlier work; for IC50: read-out: IC50 literature hOCT2; for Ki: read-out: IC50 literature hOCT2 (Ki), Ki values.

For experiment [3], the target named is T3, hPMAT (Homo sapiens, UniProt Q7RTT9).
T3 construct: expressed in transfected cells
T3 sequence (Q7RTT9 1-530): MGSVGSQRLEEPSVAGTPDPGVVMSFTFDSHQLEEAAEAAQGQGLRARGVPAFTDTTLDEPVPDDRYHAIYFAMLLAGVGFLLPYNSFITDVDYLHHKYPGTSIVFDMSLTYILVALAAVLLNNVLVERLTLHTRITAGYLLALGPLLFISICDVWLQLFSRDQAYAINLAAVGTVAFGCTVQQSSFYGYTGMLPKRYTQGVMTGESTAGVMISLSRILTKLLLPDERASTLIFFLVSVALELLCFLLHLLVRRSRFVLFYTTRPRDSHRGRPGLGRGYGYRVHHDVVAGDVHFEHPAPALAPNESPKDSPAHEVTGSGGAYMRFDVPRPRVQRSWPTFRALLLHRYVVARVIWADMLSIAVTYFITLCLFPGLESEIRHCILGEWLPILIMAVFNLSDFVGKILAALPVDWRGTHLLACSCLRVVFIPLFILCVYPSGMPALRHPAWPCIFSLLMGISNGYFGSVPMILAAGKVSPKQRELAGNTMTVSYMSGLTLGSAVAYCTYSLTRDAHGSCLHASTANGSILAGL
The following applies: Table S1, supplementary reference list, read-out: IC50 literature hPMAT, cited from earlier work.

The target in experiment [4] is T4, hOCT1 (Homo sapiens, UniProt O15245).
T4 construct: expressed in transfected cells
T4 sequence (O15245 1-554): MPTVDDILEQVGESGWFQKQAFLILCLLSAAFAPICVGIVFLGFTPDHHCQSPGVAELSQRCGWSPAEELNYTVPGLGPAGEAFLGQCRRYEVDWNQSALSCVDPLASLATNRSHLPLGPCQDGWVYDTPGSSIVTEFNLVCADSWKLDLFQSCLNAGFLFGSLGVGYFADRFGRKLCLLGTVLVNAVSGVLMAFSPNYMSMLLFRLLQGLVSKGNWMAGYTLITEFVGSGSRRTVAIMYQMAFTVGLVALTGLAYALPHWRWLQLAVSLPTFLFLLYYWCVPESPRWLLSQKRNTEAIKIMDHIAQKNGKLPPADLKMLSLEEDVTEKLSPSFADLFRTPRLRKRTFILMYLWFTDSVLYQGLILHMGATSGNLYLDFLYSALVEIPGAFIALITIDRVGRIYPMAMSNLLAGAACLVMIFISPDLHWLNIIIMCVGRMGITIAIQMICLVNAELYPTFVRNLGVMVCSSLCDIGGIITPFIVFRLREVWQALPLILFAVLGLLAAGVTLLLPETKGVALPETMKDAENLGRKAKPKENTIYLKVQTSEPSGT
The following applies: Table S1, supplementary reference list, cited from earlier work; for IC50: read-out: IC50 literature hOCT1; for Ki: read-out: IC50 literature hOCT1 (Ki), Ki values.

For experiment [5], the target named is T1, hOCT3. Briefly: [3H]MPP+ uptake inhibition assay, HEK293 cells stably expressing hOCT3. In kind it is cell-based.
Description: (§1) HEK293 cells were transfected with a plasmid, encoding the transporter of interest and an N-terminal YFP-tag, carried out using jetPRIME ^© (Polyplus Transfection; (VWR International GmbH, Vienna, Austria)) reagent (for a 10 cm dish with 1–2 × 10^6 cells in 10 mL serum containing medium at 60–80% confluency: 500 μ L jetPRIME ^© buffer, 10 μ g DNA and 20 μ L jetPRIME ^© reagent) and selection pressure maintained for two weeks [2, 54, 55]. Subsequently, 500,000 cells were FACS-sorted (fluorescence-activated cell sorting) according to expression level to establish cell lines stably expressing the protein of interest. […] For uptake inhibition assays, cells were cultured at a subconfluent (80–90% density) state in high-glucose Dulbecco’s Modified Eagle Medium (DMEM ), enriched with 10% heat-inactivated Fetal Bovine Serum (FBS) and penicillin/streptomycin (PS; 100 U × 100 mL ^−1 , each). Selection pressure was maintained by the addition of geneticin (50 mg × mL ^−1 ) at 37 ^∘ C and 5% CO 2 in a humidified incubator. At a density of 60,000 cells per well, HEK293 cells expressing the respective transporter were seeded onto poly-D-lysine-coated wells 24 h prior to uptake inhibition experiments in a final volume of 200 μ L per well.
(§2) Prior to the addition of the respective compounds, DMEM was removed from all wells and replaced with 200 μ L of Krebs-HEPES-buffer (KHB; 10 mM HEPES, 120 mM NaCl, 3 mM KCl, 2 mM CaCl 2 , 2 mM MgSO 4 and 20 mM D-glucose, pH adjusted to 7.3) at room temperature. Cells were exposed to a pre-incubation solution containing the compound of interest in the respective concentration (dissolved in Krebs-HEPES-buffer) for 10 min with a total volume of 50 μ L, which was then replaced with a 50 μ L uptake solution containing 0.05 μ M of tritiated 1-methyl-4-phenylpyridinium ([ ^3 H]MPP ^+ ) as substrate, and the compound of interest in respective concentrations, for 10 minutes each. Finally, uptake was terminated by washing with 200 μ L of ice-cold (4 ^∘ C) KHB, after which cells were lysed with 200 μ L of 1% sodium dodecyl sulphate (SDS). After transferring the solution of each well into 6 mL counting vials containing 2 mL of scintillation cocktail, the vials were measured with a beta-scintillation counter for quantification of the uptake of tritiated substrate. […] To obtain specific data, non-specific uptake was assessed in the presence of 100 μ M D22 and subtracted from the total data. The 100% values were defined as uptake in the absence of a tested substance, defining maximal uptake capacity. Inhibitions of the compound of interest were described as a percentage of the maximal uptake capacity.
(§3) Half-maximal inhibitory concentration ( IC50 ) values of each substance were calculated and plotted using GraphPad Prism 8.4.3 (GraphPad Software Inc., San Diego, CA, USA). IC50 was determined by non-linear regression, solving the equation Y=Bottom+(Top−Bottom)/(1+10^X−LogEC50) . […] All data stem from a minimum of three separate experiments (n≥ 3) executed in triplicates and are shown as mean ± SD.
Experiment [6] addresses T3, hPMAT. Briefly: [3H]MPP+ uptake inhibition assay, HEK293 cells stably expressing hPMAT. In kind it is cell-based.
Description: as §1, §2, §3
The target of experiment [7] is T2, hOCT2. Briefly: [3H]MPP+ uptake inhibition assay, HEK293 cells stably expressing hOCT2. In kind it is cell-based.
Description: as §1, §2, §3
In experiment [8] the target is T4, hOCT1. Briefly: [3H]MPP+ uptake inhibition assay, HEK293 cells stably expressing hOCT1. It counts as cell-based.
Description: as §1, §2, §3
For the next experiment, the system named is mOCT3. On the set-up: method as in earlier work. The following applies: Table S1, hOCT3 column, marked (mOCT3); supplementary reference list; read-out: IC50 literature (mOCT3); cited from earlier work.

In the case of `CC(NC(C)(C)C)C(=O)c1cccc(Cl)c1` (stereo not drawn) [Bupropion, bupropion], the 50% inhibitory concentration (IC50) (as a rule, the point on the concentration scale where inhibition reaches its midpoint) on hOCT3 [1] (ref 1, read-out: IC50 literature hOCT3) was 738 µM; at hOCT2 [2] (ref 1), 28.6 µM; on hOCT2 [2] (ref 2), 32.2 µM; at hPMAT [3] (ref 3), 115 µM; at hOCT1 [4] (ref 1) it was 161 µM; at hOCT3 [5] (HEK293 stably expressing hOCT3, 0.05 μM [3H]MPP+, 10 min pre-incubation, 10 min uptake, brackets in Table S1 = 95%-CI, n.s. = non-significant, read-out: IC50 hOCT3 (inhibitory potency, [3H]MPP+ uptake)) it was 186 µM. Besides, the IC50 at hPMAT [6] (HEK293 stably expressing hPMAT, 0.05 μM [3H]MPP+, 10 min pre-incubation, 10 min uptake, brackets in Table S1 = 95%-CI, n.s. = non-significant, read-out: IC50 hPMAT (inhibitory potency, [3H]MPP+ uptake)) is 97 µM; at hOCT2 [7] (HEK293 stably expressing hOCT2, 0.05 μM [3H]MPP+, 10 min pre-incubation, 10 min uptake, brackets in Table S1 = 95%-CI, n.s. = non-significant, read-out: IC50 hOCT2 (inhibitory potency, [3H]MPP+ uptake)), 32.9 µM; at hOCT1 [8] (HEK293 stably expressing hOCT1, 0.05 μM [3H]MPP+, 10 min pre-incubation, 10 min uptake, brackets in Table S1 = 95%-CI, n.s. = non-significant, read-out: IC50 hOCT1 (inhibitory potency, [3H]MPP+ uptake)), 5.36 µM.
Regarding `COC(=O)[C@H]1[C@@H](OC(=O)c2ccccc2)C[C@@H]2CC[C@H]1N2C` [Cocaine, cocaine], the inhibition constant Ki (usually the equilibrium dissociation constant of an inhibitor or competing ligand from its target) on hOCT2 [2] is 113 ± 21 µM; at hOCT1 [4], 85 ± 22 µM. Moreover, the “IC50 hOCT3 (inhibitory potency, [3H]MPP+ uptake)” value on hOCT3 [5] (HEK293 stably expressing hOCT3, 0.05 μM [3H]MPP+, 10 min pre-incubation, 10 min uptake, brackets in Table S1 = 95%-CI, n.s. = non-significant) is “n.s”. Besides, the “IC50 hPMAT (inhibitory potency, [3H]MPP+ uptake)” value on hPMAT [6] (HEK293 stably expressing hPMAT, 0.05 μM [3H]MPP+, 10 min pre-incubation, 10 min uptake, brackets in Table S1 = 95%-CI, n.s. = non-significant) is recorded as “n.s”. Also, the figures for the 50% inhibitory concentration (IC50) on hOCT2 [7] and on hOCT1 [8] were 27.8 µM and 6.66 µM, respectively.
With `CN1C(=O)CN=C(c2ccccc2)c2cc(Cl)ccc21` [Diazepam, diazepam], in the experiment on mOCT3, the IC50 was 40 µM.
On to `CNC(C)Cc1ccc2c(c1)OCO2` (stereo not drawn) [MDMA, 3,4-methylenedioxymethamphetamine], for which the Ki on hOCT3 [1] was 73.6 ± 50.3 µM; on hOCT2 [2], 1.63 ± 0.62 µM; on hOCT1 [4] it was 24.2 ± 9.2 µM. The IC50 against hOCT3 [5] turned out to be 154 µM; on hPMAT [6], 7.77 µM; against hOCT2 [7] it was 2.71 µM; at hOCT1 [8], 1.14 µM. Also, the “Effect on substrate uptake by hOCT3 (in words)” value at hOCT3 [5] ([3H]MPP+ uptake, HEK293 hOCT3) is listed as “not inhibiting uptake”.
Regarding `C[C@H](N)Cc1ccccc1` [d-Amphetamine, d-amphetamine], the concentration for half-maximal inhibition (IC50) at hOCT3 [1] (marked (5-HT), read-out: IC50 literature hOCT3 (5-HT)) is 24.1 ± 70 µM; at hOCT3 [1] (marked (DA), read-out: IC50 literature hOCT3 (DA)), 41.5 ± 7.5 µM; on hOCT3 [1] (read-out: IC50 literature hOCT3, ref 8) it was 363 ± 56.4 µM; at hOCT3 [1] (read-out: IC50 literature hOCT3, ref 9), 42 ± 7 µM; at hOCT2 [2] it was 20.3 ± 16.9 µM; on hOCT1 [4] it was 96.7 ± 37 µM. Moreover, the IC50 was 337 µM against hOCT3 [5], 71.8 µM on hPMAT [6], 2.21 µM against hOCT2 [7] and 8.39 µM on hOCT1 [8]. Besides, the Ki is 460 ± 140 µM at hOCT3 [1], 10.5 ± 2.6 µM at hOCT2 [2] and 202 ± 68 µM on hOCT1 [4].
As for `CCCC(C(=O)c1ccccc1)N1CCCC1` (stereo not drawn) [α-PVP], the IC50 is 1630 µM at hOCT3 [1] (ref 13, read-out: IC50 literature hOCT3); above 1000 µM on hOCT3 [1] (ref 14, read-out: IC50 literature hOCT3); 5.62 µM on hOCT2 [2] (ref 13); 17.5 ± 2.5 µM at hOCT2 [2] (ref 14); 13.4 µM at hPMAT [3] (ref 13); 1.31 µM at hOCT1 [4] (ref 13).
Consider `CN(C)CCCC1(c2ccc(F)cc2)OCc2cc(C#N)ccc21` (stereo not drawn) [Citalopram], for which the values for the IC50 on hOCT2 [2] (ref 1), on hPMAT [3] (ref 4) and at hOCT1 [4] (ref 1) were 115 µM, 117 µM and 13.2 µM, respectively.
Turning to `CNC1(c2ccccc2Cl)CCCCC1=O` (stereo not drawn) [Ketamine, ketamine], on hOCT3 [1] (Km), the “IC50 literature hOCT3 (Km)” value is 52.9 ± 15.0 µM. Further, the inhibition constant (Ki) at hOCT3 [1] was 226 ± 65 µM; at hOCT2 [2] it was 22.7 ± 6.3 µM; at hOCT1 [4], 115 ± 43.7 µM. In addition, the IC50 was 440 µM at hOCT3 [1] (read-out: IC50 literature hOCT3, ASP+ as substrate); 1030 µM at hOCT3 [5]; 135 µM on hPMAT [6]; 12.5 µM at hOCT2 [7]; 23.5 µM at hOCT1 [8]. Moreover, the “IC50 literature hOCT2 (Km)” value at hOCT2 [2] (Km) is 33.5 ± 20.3 µM. For the same molecule, the “IC50 literature hOCT1 (Km)” value on hOCT1 [4] (Km) was 73.9 ± 15.2 µM.
